From patent US20260183302A1, “PDK1 REGULATORY COMPOUND AND COMPOSITION CONTAINING THE SAME” (PROVIBIO CO., LTD., priority 2024, published 2026)

Tests used:
[1] = tested on: Human B Lymphocyte cell line, SU-DHL-8; experiment: Relative cell viability, SU-DHL-8 (CCK-8); type: cell-based; details: 48 hours, untreated (DMSO) = 100%
Protocol: Human-derived B lymphoma cell line SU-DHL-8 (Cat. #CRL-2961) purchased from ATCC was cultured in RPMI-1640 medium containing 10% FBS, 100 U/mL penicillin, and 100 μg/mL streptomycin.
The cell culture medium was then harvested, centrifuged at 1,300 rpm for 5 minutes, and the supernatant was removed. The cells were resuspended in the same medium and dispensed into a 96-well plate (Costar 96-well cell culture plate, Corning) at 90 μL per well, resulting in the conditions specified in Table 5.
Then, 10 μL of CCK-8 was added to each well, and the plates were incubated again at 37° C. in a 5% CO2 incubator for 4 hours.
In other words, when the survival rate of untreated cells (DMSO) is set at 100%, the relative cell survival rate in each group treated with the drug at different concentrations is indicated.

[2] = tested on: T cells isolated from mouse spleens; experiment: T cell proliferation inhibition (CFSE flow cytometry, anti-CD3/anti-CD28 stimulation); type: cell-based, C57BL/6 mice; details: three days
Protocol: To verify the T cell proliferation inhibitory effect of the compounds according to the present invention, the following experiment was performed based on flow cytometry analysis using carboxyfluorescein diacetate succinimidyl ester (CFSE), a fluorescent dye that binds to intracellular molecules via covalent bonds.
Spleens were extracted from 7-week-old C57BL/6 mice, ground, and then separated into single cells using a strainer (40 μm pore size, SPL). Red blood cells were removed using ACK (Ammonium-Chloride-Potassium) lysis buffer to isolate white blood cells.
Finally, using a MACS Magnetic Stand and LS column, T cells were isolated from the spleen.
The T cells isolated from the spleen were resuspended in 1 mL of free medium (RPMI-1640+200 U/mL penicillin+200 μg/mL streptomycin), and 0.3 μL of CFSE (10 mM) was added. The mixture was incubated at 37° C. for 5 minutes.
Free medium (10 mL) was added to stop the reaction, and the cells were centrifuged to obtain the cell pellet.
RPMI 1640 medium containing 10% FBS, 100 U/mL penicillin, 100 μg/mL streptomycin, and resuspended the cells. The cells were then seeded into a 96-well plate at a density of 2× 10^5 cells per well and activated with CD3 and CD28 antibodies (0.5 μg/mL each) to activate T cells.
The compound diluted in DMSO was added at concentrations of 10 nM, 100 nM, 1 μM, 10 μM, 30 μM, and 50 μM, with three wells per concentration, and cultured at 37° C. and 5% CO2 for three days. The cells were then analyzed using a FACS Canto instrument.
The proliferation inhibition rate (%) was calculated using the following formula: […]

Row | Compound | Relative cell viability (%) ([1]; SU-DHL-8, 1 μM) | Relative cell viability (%) ([1]; SU-DHL-8, 10 μM) | Relative cell viability (%) ([1]; SU-DHL-8, 30 μM) | Relative cell viability (%) ([1]; SU-DHL-8, 50 μM) | Proliferation inhibition rate (%) ([2]; concentration 10 nM) | Proliferation inhibition rate (%) ([2]; concentration 100 nM) | Proliferation inhibition rate (%) ([2]; concentration 1 μM) | Proliferation inhibition rate (%) ([2]; concentration 10 μM) | Proliferation inhibition rate (%) ([2]; concentration 30 μM) | Proliferation inhibition rate (%) ([2]; concentration 50 μM) | Relative cell viability (%) ([1]; SU-DHL-8, 1 μM, listed as PBK-2024-024, 1 µM) | Relative cell viability (%) ([1]; SU-DHL-8, 10 μM, listed as PBK-2024-024, 10 µM) | Relative cell viability (%) ([1]; SU-DHL-8, 30 μM, listed as PBK-2024-024, 30 µM) | Relative cell viability (%) ([1]; SU-DHL-8, 50 μM, listed as PBK-2024-024, 50 µM) | Proliferation inhibition rate (%) ([2]; concentration 10 nM, listed as PBK-2024-024, 0.01 µM)
1 | Nc1ncccc1C(=O)NCCCCCCCCCCCCN1CC=CC1 [Compound 129, 2-amino-N-(12-(2,5-dihydro-1H-pyrrol-1-yl)dodecyl) nicotinamide] | 34.26% | 33.99% | 35.05% | 34.27% | 0.00% | 90.00% | 100.00% | 100.00% | 100.00% | 100.00% |  |  |  |  | 
2 | COC1CCN(CCCCCCCCCCCCNC(=O)c2cccnc2N)C1 (stereo not drawn) [Compound 32, 2-Amino-N-(12-(3-methoxypyrrolidin-1-yl)dodecyl) nicotinamide] |  |  |  |  |  |  |  |  |  |  | 3.48% | 3.01% | 1.97% | 1.45% | 0.29%
3 | Nc1ncccc1C(=O)NCCCCCCCCCCCCN1CC(F)(F)C1 [Compound 122, 2-Amino-N-(12-(3,3-difluoroazetidin-1-yl)dodecyl) nicotinamide] | 31.84% | 31.91% | 32.93% | 35.70% | 0.00% | 0.00% | 80.00% | 100.00% | 100.00% | 100.00% |  |  |  |  | 
4 | CC1CCN(CCCCCCCCCCCCNC(=O)c2cccnc2N)C1 (stereo not drawn) [Compound 24, 2-Amino-N-(12-(3-methylpyrrolidin-1-yl)dodecyl) nicotinamide] | 8.38% | 1.65% | 0.62% |  |  | 100.00% | 100.00% | 100.00% | 100.00% | 100.00% |  |  |  |  | 
5 | Cc1ccc(C2CCN(CCCCCCCCCCCCNC(=O)c3cccnc3N)CC2)cc1 [Compound 55, 2-Amino-N-(12-(4-(p-tolyl)piperidin-1-yl)dodecyl) nicotinamide] | 9.36% | 4.92% | 1.10% | 0.97% |  | 100.00% | 100.00% | 100.00% | 100.00% | 100.00% |  |  |  |  | 
6 | Nc1ncccc1C(=O)NCCCCCCCCCCCCN1CCN(CCO)CC1 [Compound 54, 2-Amino-N-(12-(4-(2-hydroxyethyl)piperazin-1-yl)dodecyl) nicotinamide] | 6.42% | 4.05% | 3.26% | 2.23% |  | 100.00% | 100.00% | 100.00% | 100.00% | 100.00% |  |  |  |  | 
7 | CC1CN(C)C(CCCCCCCCCCCCNc2ccc3cncnc3n2)N1 (stereo not drawn) [Compound 43] | 22.61% | 11.93% | 2.34% | 1.58% |  | 100.00% | 100.00% | 100.00% | 100.00% | 100.00% |  |  |  |  | 
8 | CC1CCCN(CCCCCCCCCCCCNC(=O)c2cccnc2N)CC1 (stereo not drawn) [Compound 39, 2-Amino-N-(12-(4-methylazepan-1-yl)dodecyl) nicotinamide] | 11.48% | 8.41% | 6.24% | 4.27% |  | 100.00% | 100.00% | 100.00% | 100.00% | 100.00% |  |  |  |  | 
9 | C[C@H]1CNCCN1CCCCCCCCCCCCNC(=O)c1cccnc1N.Cl [Compound 37, (S)-2-Amino-N-(12-(2-methylpiperazin-1-yl)dodecyl) nicotinamide hydrochloride] | 6.38% | 4.45% | 3.17% | 2.32% |  |  | 100.00% | 100.00% | 100.00% | 100.00% |  |  |  |  | 
10 | Nc1ncccc1C(=O)NCCCCCCCCCCCCN1CCC(F)C1 (stereo not drawn) [Compound 26, 2-Amino-N-(12-(3-fluoropyrrolidin-1-yl)dodecyl) nicotinamide] | 1.70% | 1.04% | 0.05% |  |  | 100.00% | 100.00% | 100.00% | 100.00% | 100.00% |  |  |  |  | 
11 | CC1(C)CCN(CCCCCCCCCCCCNC(=O)c2cccnc2N)C1 [Compound 22, 2-Amino-N-(12-(3,3-dimethylpyrrolidin-1-yl)dodecyl) nicotinamide] | 6.46% | 2.85% | 2.45% | 1.67% | −0.80% | 100.00% | 100.00% | 100.00% | 100.00% | 100.00% |  |  |  |  | 
12 | CN1CCN(CCCCCCCCCCCCNC(=O)c2cccnc2F)CC1 [Compound 121, 2-fluoro-N-(12-(4-methylpiperazin-1-yl)dodecyl) nicotinamide] | 34.89% | 28.99% | 29.04% | 31.11% | 0.00% | 0.00% | 0.00% | 30.00% | 100.00% | 100.00% |  |  |  |  | 
13 | Nc1ncccc1C(=O)NCCCN1CCOCC1 [Compound 78, 2-amino-N-(3-morpholin-4-yl-propyl) nicotinamide] |  |  |  |  | −7.14% | −4.19% | −3.73% | 0.68% | 4.51% | 8.76% |  |  |  |  | 
14 | Cc1ccc(C(=O)NCCCCCCCCCCCCN2CCN(C)CC2)nc1 [Compound 202, 5-Methyl-N-(12-(4-methylpiperazin-1-yl)dodecyl) picolinamide] |  |  |  |  | 4.05% | 13.17% | 18.96% | 100.00% | 100.00% | 100.00% |  |  |  |  | 
15 | CN1CCN(CCCCCCCCCCCCNC(=O)c2ccccc2C(=O)NC2CCCCC2)CC1 [Compound 191, N1-Cyclohexyl-N2-(12-(4-methylpiperazin-1-yl)dodecyl) phthalamide] |  |  |  |  | 0.00% | 0.00% | 7.39% | 93.26% | 100.00% | 100.00% |  |  |  |  | 
